Experimental data published in a melting point compilation (Tetko et al.; mined from patent text by program, amines drawn as free bases though some values may be those of a salt).
Non-standard residues stand in square brackets, D forms with d. Residues, ends and D or L forms follow the SMILES beside them. *: point of attachment. Npys = O=[N+]([O-])c1cccnc1S*; Mpa = O=C(O)CCS

Compound	melting point [°C]
Cc1cc(Br)cnc1NCCCNC1=NS(=O)N=C1N (configuration not stated)	204 to 205
CC(=O)OC1CSC(Oc2cncc(-c3cnn(C)c3)c2)C(OC(C)=O)C1OC(C)=O (configuration not stated)	68
CCCNS(=O)(=O)c1cc(C(=O)CCC(=O)OC)ccc1Cl	93 to 94
Nc1c([N+](=O)[O-])cnn1-c1c(F)c(F)c(C(F)(F)F)c(F)c1F	123 to 126
O=C(O)C(Cl)(Cl)CCCCCCCCCCc1ccccc1	157 to 159
Cc1cccc2c(=O)[nH]c(CCN3CC[C@H](O)C3)cc12	176 to 178
CC(=O)c1cc(N2CCOCC2)ccc1NC(=O)c1cccc2c1OCO2	150 to 152
COCCNc1cc(C)n(COC)c(=O)c1[N+](=O)[O-]	172 to 173
COC(=O)c1ccccc1Nc1cccc(C(C)O)c1Cl (configuration not stated)	94 to 95
O=C1NCCN(NC(=O)c2ccc(O)c(O)c2)C1=O	294
COc1ccc(C(=O)NNC(C)=O)cc1	146 to 148
Cc1cccc(S(=O)(=O)N=CN(C)C)c1C#N	168 to 174
COc1ccc(C=C(C#N)C(=O)O)cc1OC	206
Cc1ccc(-c2n[nH]c(N)c2C#N)cc1	173 to 178
CC(C)(C)c1ccc(CNC(=O)NCc2ccc(NS(C)(=O)=O)c([N+](=O)[O-])c2)cc1	177 to 178
Cc1c(C2=CCC(Cc3ccccc3)(N(C)C)CC2)[nH]c2ccc(C#N)cc12 (configuration not stated)	120 to 123
O=C(N1CCCCC1)N1CC(Oc2cccc(C(F)(F)F)c2)C1	50 to 52
CCCCc1ncc(/C=C(\Cc2cccs2)C(=O)O)n1Cc1ccc(C(=O)O)c(C(=O)O)c1	204 to 205
COc1ccc2cc(-c3noc(C)n3)c(=O)oc2c1	218 to 220

Now from value to compound:

melting point [°C]	Compound
114 to 116	Cc1nc2ccccc2c(=O)n1CCCl
71 to 73	CC(C)(C)n1nnc(-c2ccccc2-c2ccc(C=O)cc2)n1
133 to 134	COc1cc(C=O)ccc1OCc1nc(-c2ccccc2)sc1C
155 to 158	COc1ccc([C@H](Sc2cc(Cc3ccccc3)ccc2N)[C@@H](O)C(=O)O)cc1
125	CCCCc1ccc(OC)c(-c2csc(NC(=O)c3ccc(C(=O)N4CCC(N5CCC(NS(C)(=O)=O)C5)CC4)cc3)n2)c1 (configuration not stated)
114 to 116	N=C(NO)c1cccc(COC(=O)c2cc3ccccc3n2Cc2cccc(C(=N)NO)c2)c1
> 350	CCCn1c(=O)c2nc(-c3ccc(/C=C/C(=O)O)cc3)[nH]c2n(CC2CCCCC2)c1=O
138 to 140	COc1ccnc(CCc2nc3cc(-c4ccc(S(=O)(=O)N5CCN(C(C)=O)CC5)cc4)cnc3[nH]2)c1
163	CC(C)c1ccc(NC(=O)C2CCCc3ccccc32)cc1 (configuration not stated)
98 to 100	COc1cc(C(=O)c2ccccc2)cc(C#N)c1OC
121 to 124	CCc1nc2c(cnn2CC)c(NC2CCOCC2)c1CNC(=O)c1cccc(C(=O)NCc2ccc(Cl)c(-c3cccc(CN4CC(C)NC(C)C4)c3)c2)c1 (configuration not stated)
100 to 101	O=C(O)CC(NC(=O)OCc1ccccc1)C(=O)CNS(=O)(=O)CCc1ccccc1 (configuration not stated)
132 to 133	O=S(=O)(c1ccccc1)n1cc(-c2ccnc(N[C@H]3CC[C@H](O)CC3)n2)c2ccccc21
101 to 105	CC(C)C[C@@H](C=O)NC(=O)[C@H](Cc1c[nH]cn1)NC(=O)[C@H](Cc1ccccc1)NC(=O)CCSSc1ncccc1[N+](=O)[O-] ([Mpa](Npys)FHL-aldehyde)
216 to 217	C=C1CCCN(C(=O)c2ccc(NC(=O)c3ccccc3C)cc2)c2ccccc21
135	CC(C)Nc1cccnc1N1CCN(C(=O)c2ccc(C(=O)NC[C@H](C)O)cc2)CC1
182 to 184	Cc1ccc(S(=O)(=O)OC2=C(Br)C(=O)c3ccc4c(c3C2=O)C=CC(C)(C)O4)cc1
117 to 123	CCCn1cc(Cc2ccc(C(=O)NS(=O)(=O)c3ccccc3C)cc2OC)c2cc(CCNC(=O)N3CCOCC3)ccc21
